# Experimental data: PMC7083565, “In vitro metabolism, reaction phenotyping, enzyme kinetics, CYP inhibition and induction potential of ataluren” (Pharmacology Research & Perspectives, 2020)
# Assays:
# [1] = Plasma protein binding (ultrafiltration), human; type: in vitro ADME
# Experimental: (§1) [^14C]‐Ataluren, at 50, 500, 5000, and 50 000 ng/mL or 0.175, 1.75, 17.5, and 175 µM, in male mouse, rat, dog, monkey, and human plasma, was incubated (n = 3) at 37°C for approximately 15 minutes, transferred into Centrifree® Micropartition Units (30 000 Da molecular weight cutoff, 1 mL capacity; Amicon Inc), and centrifuged at 37°C and 2000 g for approximately 10 minutes so that the amount of the sample filtered was approximately ≤ 20% of the total volume. After centrifugation, the entire ultrafiltrate was weighed and analyzed for radioactivity using liquid scintillation counting. The percent bound = (1‐Cu/Cm)×100, where Cu is the concentration of radioactivity in the ultrafiltrate and Cm is the concentration of radioactivity in the plasma before centrifugation.
# [2] = Glucuronidation in pooled human lung microsomes; type: in vitro ADME; conditions: lung microsomes 1 mg protein/mL, 10 μmol/L
# Experimental: Ataluren at 10 μmol/L, was incubated (n = 1) with pooled human intestinal, lung, and kidney microsomes (1 mg protein/mL, preactivated with alamethicin) to evaluate if ataluren‐O‐1β‐acyl glucuronide will be formed in these extrahepatic tissues. Incubation mixtures and procedures were essentially the same as the above. The supernatant fractions were analyzed by LC‐MS/MS to quantify the formation of ataluren‐O‐1β‐acyl glucuronide and the loss of ataluren. Detailed LC‐MS/MS conditions are summarized in LC‐MS/MS Analysis section. […] The ataluren acyl glucuronide formation rate after 60 minutes incubation was calculated using the amount of metabolite formed (pmol) divided by the protein amount in the incubation sample ([…]) and the incubation time (60 minutes).
# Quantification of ataluren loss and ataluren‐O‐1β‐acyl glucuronide formation was carried out with an LC‐MS/MS system, which consisted of two Shimadzu LC‐10ADvp pumps, a SPD10‐AVP UV/Vis detector, a Shimadzu SILHTA autosampler, a Shimadzu DGU‐14A degasser, and a Sciex API 4000 QTRAP mass spectrometer equipped with a Turbo Ionspray ionization source that operated in positive ionization mode. […] Ion transitions monitored were at m/z 285 → m/z 123 for ataluren, m/z 461 → m/z 285 for ataluren acyl glucuronide, and m/z 289 → m/z 127 for ataluren‐D4 (internal standard), respectively.
# CYP1A2 = assay: CYP induction in primary human hepatocytes: CYP1A2; conditions: Phenacetin O-deethylase, 48 hours, n=3
# UGT1A7 = molecular target: T1, UGT1A7 (Homo sapiens, UniProt Q9HAW7); assay: Reaction phenotyping with recombinant human UGT enzymes: UGT1A7; type: in vitro ADME; conditions: rUGT1A7 0.25 mg protein/mL, 10 μmol/L, 60 minutes, n = 2
# T1 construct: purchased BD Biosciences; host or cells: baculovirus-infected insect cells
# T1 sequence (Q9HAW7 26-530): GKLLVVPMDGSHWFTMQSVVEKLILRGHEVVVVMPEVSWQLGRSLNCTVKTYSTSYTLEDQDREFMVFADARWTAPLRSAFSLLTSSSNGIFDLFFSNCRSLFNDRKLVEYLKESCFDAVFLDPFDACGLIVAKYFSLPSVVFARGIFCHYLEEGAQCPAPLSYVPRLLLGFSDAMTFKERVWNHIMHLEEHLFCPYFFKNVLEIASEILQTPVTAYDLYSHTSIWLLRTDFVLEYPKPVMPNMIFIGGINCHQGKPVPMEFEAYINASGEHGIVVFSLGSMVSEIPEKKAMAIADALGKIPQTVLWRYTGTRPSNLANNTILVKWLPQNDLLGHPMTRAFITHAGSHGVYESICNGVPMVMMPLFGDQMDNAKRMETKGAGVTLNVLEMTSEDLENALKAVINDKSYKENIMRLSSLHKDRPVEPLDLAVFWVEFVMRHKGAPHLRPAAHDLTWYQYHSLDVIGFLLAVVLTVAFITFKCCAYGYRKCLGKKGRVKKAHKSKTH
# Experimental: Ataluren at 10 μmol/L, was incubated (n = 2) with recombinant human uridine diphosphate glucuronosyltransferase (rUGT) enzymes: rUGTs 1A1, 1A3, 1A4, 1A6, 1A7, 1A8, 1A9, 1A10, 2B4, 2B7, 2B15, and 2B17 at 0.25 mg protein/mL. Incubations were conducted in duplicate at 37°C. The incubation mixture (0.2 mL, final volume with 1% methanol) consisted of Tris‐HCl buffer (100 mmol/L, pH 7.7 at 37°C), MgCl2 (10 mmol/L), EDTA (1 mmol/L), saccharic acid 1,4‐lactone (0.1 mmol/L), and UDPGA (8 mmol/L). […] Samples were subjected to centrifugation (920 g for 10 minutes at 10°C) and the supernatant fractions were analyzed by LC‐MS/MS to quantify the formation of ataluren‐O‐1β‐acyl glucuronide and loss of ataluren. […] The ataluren acyl glucuronide formation rate after 60 minutes incubation was calculated using the amount of metabolite formed (pmol) divided by the protein amount in the incubation sample (0.05 mg) and the incubation time (60 minutes).
# Quantification of ataluren loss and ataluren‐O‐1β‐acyl glucuronide formation was carried out with an LC‐MS/MS system, which consisted of two Shimadzu LC‐10ADvp pumps, a SPD10‐AVP UV/Vis detector, a Shimadzu SILHTA autosampler, a Shimadzu DGU‐14A degasser, and a Sciex API 4000 QTRAP mass spectrometer equipped with a Turbo Ionspray ionization source that operated in positive ionization mode. […]
# [3] = Plasma protein binding (ultrafiltration), monkey; type: in vitro ADME; conditions: male, cynomolgus, 50 to 50 000 ng/mL, mean ± SD, n = 3, read-out: percentage protein binding (converted)
# Experimental: as §1
# [4] = DMD patients, oral 10, 10, 20 mg/kg/day (morning, mid-day and evening dose); read-out: mean Cmax at the steady state; cited from earlier work
smiles,measurement,setting,value
"O=C(O)c1cccc(-c2noc(-c3ccccc3F)n2)c1 [ataluren, Ataluren]",free fraction in human plasma,[1]; as measured,0.4%
same,fraction unbound at 15 min,"[1]; male, 50 to 50 000 ng/mL, mean ± SD, n = 3, read-out: percentage protein binding (converted)",0.004
same,Glucuronidation of ataluren observed,[2],not in lung microsomes
same,"Positive control %, Mean",CYP1A2; ataluren 4 µM,1.32%
same,"Positive control %, Mean",CYP1A2; ataluren 40 µM,1.24%
same,"Vehicle control %, Mean",CYP1A2; ataluren 40 µM,116%
same,"Positive control %, Mean",CYP1A2; ataluren 400 µM,0.087%
same,"Vehicle control %, Mean",CYP1A2; ataluren 400 µM,100%
same,ataluren loss,UGT1A7,6.2%
same,fraction unbound at 15 min,[3],0.003
same,Cmax,[4],~79.9 µM
